Measured values reported in US11866416B2, “Streptococcus mutans glucosyl transferase inhibitors for dental caries therapy” (UAB Research Foundation, priority 2018, dated 2024).
≈ marks a conversion by molar mass, not a printed value. Like-named read-outs stand apart in the source and are kept apart here. Marks after values point to notes of the source that are not given here.

What was measured:
S. mutans biofilm = S. mutans biofilm formation and inhibition assay (96-well plates, crystal violet); type: cell-based, Streptococcus mutans; settings: Streptococcus mutans
Procedure: Biofilm assays using 96-well flat-bottom polystyrene microtiter plates were performed to evaluate S. mutans biofilm formation at various conditions as described (Liu et al. (2011) Antimicrobial Agents and Chemotherapy 55, 2679; Zhang et al. (2015) International Journal of Antimicrobial Agents 46, 174), the disclosures of which are incorporated herein by reference in their entirety). Each assay was replicated three times. Compounds that inhibited biofilm formation at minimum concentration (MBIC) were determined by serial dilutions.
S. mutans biofilm formation and inhibition assays. […] Each assay was replicated three times. Minimum biofilm inhibitory concentration (MBIC) of compounds was determined by serial dilutions.
S. mutans biofilm formation and inhibition assays. Biofilm assays using 96-well flat-bottom polystyrene microtiter plates were performed to evaluate S. mutans biofilm formation at various conditions as described. Each assay was replicated […]. Compounds that inhibited 50% biofilm formation were determined by serial dilutions.
S. mutans biofilm formation and inhibition assays. A well-established protocol to study S. mutans biofilm formation in 96-well flat-bottom polystyrene microtiter plates was used, in triplicate (Mattos-Graner, R. O.; Napimoga, M. H.; Fukushima, K.; Duncan, M. J.; Smith, D. J., Comparative analysis of Gtf isozyme production and diversity in isolates of Streptococcus mutans with different biofilm growth phenotypes. Journal of clinical microbiology 2004, 42 (10), 4586-4592). The stock solutions were made up in 100% DMSO, and final concentration of DMSO used in the assays was 1%. Minimum biofilm inhibitory concentration (MBIC) of compounds was determined by serial dilutions.

S. mutans = experiment: microbe, parasite or virus in culture; type: cell-based, Streptococcus mutans; settings: for MIC50: Streptococcus mutans; for Selectivity: growth versus biofilm
Procedure: Cell viability of S. mutans, S. gordonii, S. sanguinis, Aggregatibacter actinomycetemcomitans and Actinomyces. […] The number of colony-forming units (CFU) per milliliter of each sample treated with selected compounds at different concentrations was enumerated after incubation for 24 h at 37° C. and compared to the values obtained from the DMSO control group. Overnight broth cultures were transferred by 1:50 dilutions into fresh THB medium and were allowed to grow until mid-exponential phase (OD470 nm 0.6) before transfer to 96-well plates containing desired concentration of the compound. After 16 h incubation, bacterial growth was measured at OD470, and normalized to the DMSO control (100%).
Cell viability of S. mutans and commensal S. gordonii and S. sanguinis. Effects of lead small molecules on cell viability were examined. The number of colony-forming units (CFU) per milliliter for each compound at different concentrations was determined after incubation for 24 h at 37° C. and compared to the values obtained from the DMSO control group.
Cell viability of S. mutans and commensal S. gordonii and S. sanguinis. […] DMSO served as a control group and provided a relative comparison for the number of colony-forming units (CFU) per milliliter for each compound at different concentrations was determined after incubation for 24 h at 37° C. The final concentration of DMSO used in the assays was 1%.

[1] = Table 1, >500 = no inhibition up to 500 μM, read-out: Biofilm Inhibition IC50
[2] = Table 2, read-out: Biofilm Inhibition IC50
[3] = Table 2, >300 = no inhibition up to 300 μM, read-out: Growth Inhibition MIC50
[4] = Table 3, read-out: Biofilm Inhibition IC50
[5] = Table 3, >300 = no inhibition up to 300 μM, NI = no inhibition up to 400 μM, read-out: Growth Inhibition MIC50
[6] = Table 4, stilbenes, NI = no inhibition, read-out: Biofilm IC50
[7] = Table 8, stilbenes, NI = no inhibition, read-out: Biofilm IC50
[8] = Table 4, stilbenes, average of at least 5 measurements, NI = no inhibition, read-out: Growth MIC50
[9] = Table 8, stilbenes, average of at least 5 measurements, NI = no inhibition

SMILES	IC50 (S. mutans biofilm; [1]) [µM]	IC50 (S. mutans biofilm; [2]) [µM]	MIC50 (S. mutans; [3]) [µM]	other results
NC(=O)c1ccccc1OC(=O)c1ccc(-c2ccccc2)cc1 [AQ]	55.6	55.6	> 300	
COC(=O)c1ccc(NC(=O)c2cc3cc([N+](=O)[O-])ccc3o2)cc1 [AC]	144	144	> 300	
NC(=O)c1cccc(NC(=O)c2ccccc2-c2ccccc2)c1 [BO]	49.4	49.4	> 300	
COC(=O)c1ccc(NC(=O)c2cc3cc([N+](=O)[O-])ccc3[nH]2)cc1 [BZ]	196		> 300	
NC(=O)c1ccccc1OC(=O)c1ccc2ccccc2n1 [Compound 298G7]		105	> 300	
COc1ccc2[nH]c(C(=O)Nc3cccc(C(N)=O)c3)cc2c1 [Compound 3W]	56.6	56.6	> 300	
Oc1cc(O)c2cc(O)c(-c3cc(O)c(O)c(O)c3)[o+]c2c1 [PBF]				IC50 (S. mutans biofilm; [4]): 135 ± 5.6 µM; MIC50 (S. mutans; [5]): 262 ± 21 µM
COC(=O)c1cccc(NC(=O)c2cc3cc([N+](=O)[O-])ccc3s2)c1 [Compound 3U]	54.4	54.4	> 300	
COC(=O)c1ccccc1NC(=O)c1cc2ccccc2s1 [BE]	74.9	74.9	> 300	
COC(=O)c1ccccc1NC(=O)c1ccc2ccccc2n1 [BD]	89.5	89.5	> 300	
O=C(/C=C/c1ccc(O)cc1O)c1ccc(O)cc1 [SN-II-49C]				IC50 (S. mutans biofilm; [4]): 77 ± 8 µM; MIC50 (S. mutans; [5]): 782 ± 96 µM (≈ 200 µg/mL)
O=C(O)c1ccc(NC(=O)c2cc3cc([N+](=O)[O-])ccc3s2)cc1 [SN-I-272OH]		15.6	> 300	
NC(=O)c1ccccc1NC(=O)c1ccc2ncoc2c1 [HW-1-179]		65.1	> 300	
Cl.NC(=O)c1ccccc1NC(=O)c1cc2cc(N)ccc2s1 [SN-II-81Cl]		9.6		Growth Inhibition MIC50 (S. mutans; Table 2, >300 = no inhibition up to 300 μM): >300^b μM
O=C(/C=C/c1ccc(O)cc1)c1ccccc1O [SN-II-113]				IC50 (S. mutans biofilm; [4]): 213 ± 7 µM; MIC50 (S. mutans; [5]): > 300 µM
NC(=O)c1cccc(NC(=O)c2cc3cc([N+](=O)[O-])ccc3[nH]2)c1 [Compound 298b2]		138	> 300	
COC(=O)c1cccc(NC(=O)c2cc3cc(N)ccc3o2)c1 [SN-II-105]		5.5	347 (≈ 108 µg/mL)	
O=C(Nc1ccccc1Br)c1cc2cc([N+](=O)[O-])ccc2s1 [BI]	122	122	> 300	
NC(=O)c1ccc(NC(=O)c2ccc3ccccc3c2O)cc1 [BN]	56.9	56.9	> 300	
COc1cc(/C=C/c2ccc(OC)c(O)c2)cc(OC)c1 [Entry 9]				IC50 (S. mutans biofilm; [6]): 122 ± 11 µM; IC50 (S. mutans biofilm; [7]): 122 ± 11 µM; MIC50 (S. mutans; [8]): 137 ± 6 µM (≈ 39.2 µg/mL); Selectivity (S. mutans; Table 4, stilbenes): 1.1; Growth MIC50 (S. mutans; [9]): 137 ± 6 µM; Selectivity (S. mutans; Table 8, stilbenes): 1.1
CC(C)(C)OC(=O)NCc1ccccc1NC(=O)c1cc2ccccc2s1 [AI]	43.4	43.4	> 300	
COc1cc(OC)c(-c2oc3ccccc3c(=O)c2O)cc1OC [AP-I-240]				IC50 (S. mutans biofilm; [4]): 10.1 ± 1 µM; MIC50 (S. mutans; [5]): 15.3 ± 3 µM (≈ 5.02 µg/mL)
O=C1/C(=C/c2cc(O)c(O)cc2O)Oc2ccccc21 [SN-II-110]				IC50 (S. mutans biofilm; [4]): 10.2 ± 2 µM; MIC50 (S. mutans; [5]): 157 ± 13 µM (≈ 42.3 µg/mL)
Oc1ccc(/C=C/c2ccc(O)cc2)cc1 [Entry 4]				IC50 (S. mutans biofilm; [6]): 344 ± 17 µM; IC50 (S. mutans biofilm; [7]): 344 ± 17 µM; MIC50 (S. mutans; [8]): 854 ± 58 µM (≈ 181 µg/mL); Selectivity (S. mutans; Table 4, stilbenes): 2.4; Growth MIC50 (S. mutans; [9]): 854 ± 58 µM; Selectivity (S. mutans; Table 8, stilbenes): 2.4
COc1cc(O)ccc1/C=C1\Oc2ccccc2C1=O [SN-II-115]				IC50 (S. mutans biofilm; [4]): 133 ± 24 µM; MIC50 (S. mutans; [5]): 153 ± 21 µM (≈ 41 µg/mL)
NC(=O)c1cccc(NC(=O)c2ccc(-c3ccccc3)cc2)c1 [AR]	79.9	79.9	> 300	
